Measurements taken from patent US9376433B2, “(AZA-)isoquinolinone derivatives” (MERCK PATENT GMBH, priority 2012, dated 2016).

What was measured:
tankyrase 1/2 = test: Cellular inhibition of tankyrase: increase of Axin2 level in DLD1 cells (Luminex); format: cell-based; details: DLD1 colon carcinoma cells, 24 hours, read-out: EC50 tankyrase 1/2 (cell assay)
Description: Measurement of Cellular Inhibition of Tankyrase
Since Tankyrases have been described to modulate cellular level of Axin2 (Huang et al., 2009; Nature) the increase of Axin2 level is used as read-out for determination of cellular inhibition of Tankyrases in a Luminex based assay.
Cells of the colon carcinoma cell line DLD1 are plated in 96 well plates with 1.5×10^4 cells per well. Next day, cells are treated with a serial dilution of test compound in seven steps as triplicates with a final DMSO concentration of 0.3%. After 24 hours, cells are lysed in lysis buffer (20 mM Tris/HCl pH 8.0, 150 mM NaCl, 1% NP40, 10% Glycerol) and lysates are cleared by centrifugation through a 96 well filter plate (0.65 μm). Axin2 protein is isolated from cell lysates by incubation with a monoclonal anti-Axin2 antibody (R&D Systems #MAB6078) that is bound to fluorescent carboxybeads. Then, bound Axin2 is specifically detected with a polyclonal anti-Axin2 antibody (Cell Signaling #2151) and an appropriate PE-fluorescent secondary antibody. The amount of isolated Axin2 protein is determined in a Luminex^200 machine (Luminex Corporation) according to the manufacturer's instruction by counting 100 events per well. Inhibition of Tankyrase by test compounds results in higher levels of Axin2 which directly correlates with an increase of detectable fluorescence. As controls cells are treated with solvent alone (neutral control) and with a Tankyrase reference inhibitor IWR-2 (3E-06 M) which refers as control for maximum increase of Axin2. For analysis, the obtained data are normalized against the untreated solvent control and fitted for determination of the EC50 values using the Assay Explorer software (Accelrys).

TNKS1 = target: T1, TNKS1 (Homo sapiens, UniProt O95271); test: TNKS1 activity ELISA (autoparsylation assay); format: biochemical; details: GST-tagged Tnks-1 (1023-1327 aa), luminescence
T1 construct: GST-tagged Tnks-1 (1023-1327 aa, prepared in-house); made in house
T1 sequence (O95271 1023-1327): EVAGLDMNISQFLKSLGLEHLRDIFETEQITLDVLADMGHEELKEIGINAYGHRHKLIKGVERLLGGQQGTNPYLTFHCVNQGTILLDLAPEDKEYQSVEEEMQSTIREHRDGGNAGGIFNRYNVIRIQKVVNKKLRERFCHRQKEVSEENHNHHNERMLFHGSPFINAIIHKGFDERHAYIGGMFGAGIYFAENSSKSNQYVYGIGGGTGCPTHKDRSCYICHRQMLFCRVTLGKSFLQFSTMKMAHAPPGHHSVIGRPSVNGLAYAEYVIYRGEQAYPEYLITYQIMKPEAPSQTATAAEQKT
Description: Description of the TNKS1 and TNKS2 ELISA Assay
Biochemical activity testing of TNKS 1 and 2: activity ELISA (Autoparsylation assay)
For analysis of autoparsylation activity of TNKS 1 and 2 an activity ELISA iss performed: In the first step GST tagged TNKS is captured on a Glutathione coated plate. Then the activity assay with biotinylated NAD is performed in the absence/presence of the compounds. During the enzymatic reaction GST tagged TNKS transfers biotinylated ADP-ribose to itself from biotinylated NAD as co-substrate. For the detection streptavidin-HRP conjugate is added that binds to the biotinylated TNKS and is thereby captured to the plates. The amount of biotinylated resp. autoparsylated TNKS is detected with a luminescence substrate for HRP. The level of the luminescence signal correlats directly with the amount of autoparsylated TNKS and therefore with activity of TNKS.
The acitivity ELISA is performed in 384 well Glutathione coated microtiter plates (Express capture Glutathione coated plate, Biocat, Heidelberg, Germany). The plates are pre-equilibrated with PBS. Then the plates are incubated with 50 μl 20 ng/well GST-tagged Tnks-1 (1023-1327 aa, prepared in-house), respectively GST-tagged Tnks-2 (873-1166 aa, prepared in-house) in assay buffer (50 mM HEPES, 4 mM Mg-chloride, 0.05% Pluronic F-68, 2 mM DTT, pH 7.7) overnight at 4° C. The plates are washed 3 times with PBS-Tween-20. The wells are blocked by incubation at room temperature for 20 minutes with 50 μl blocking buffer (PBS, 0.05% Tween-20, 0.5% BSA). Afterwards the plates are washed 3 times with PBS-Tween-20. The enzymatic reaction is performed in 50 μl reaction solution (50 mM HEPES, 4 mM Mg-chloride, 0.05% Pluronic F-68, 1.4 mM DTT, 0.5% DMSO, pH 7.7) with10 μM bio-NAD (Biolog, Life science Inst., Bremen, Germany) as co-substrate in the absence or presence of the test compound (10 dilution concentrations) for 1 hour at 30° C. The reaction is stopped by 3 times washing with PBS-Tween-20. For the detection 50 μl of 20 ng/μl Streptavidin, HRP conjugate (MoBiTec, Göttingen, Germany) in PBS/0.05% Tween-20/0.01% BSA are added and the plates are incubated for 30 minutes at room temperature. After three times washing with PBS-Tween-20 50 μl of SuperSignal ELISA Femto Maximum sensitivity substrate solution (ThermoFisherScientific (Pierce), Bonn, Germany) are added. Following a 1 minute incubation at room temperature luminescence signals are measured with an Envision multimode reader (Perkin Elmer LAS Germany GmbH) at 700 nm. The full value used is the inhibitor-free reaction. The pharmacological zero value used is XAV-939 (Tocris) in a final concentration of 5 μM. The inhibitory values (IC50) are determined using either the program Symyx Assay Explorer® or Condosseo® from GeneData.

Tankyrase-2 = target: T2, Tankyrase-2 (Homo sapiens, UniProt Q9H2K2); test: Tankyrase 2 autoparsylation assay (HTRF enzyme assay); format: biochemical; details: GST-tagged Tankyrase-2 (873-1166 aa)
T2 construct: GST-tagged Tankyrase-2 (873-1166 aa)
T2 sequence (Q9H2K2 873-1166): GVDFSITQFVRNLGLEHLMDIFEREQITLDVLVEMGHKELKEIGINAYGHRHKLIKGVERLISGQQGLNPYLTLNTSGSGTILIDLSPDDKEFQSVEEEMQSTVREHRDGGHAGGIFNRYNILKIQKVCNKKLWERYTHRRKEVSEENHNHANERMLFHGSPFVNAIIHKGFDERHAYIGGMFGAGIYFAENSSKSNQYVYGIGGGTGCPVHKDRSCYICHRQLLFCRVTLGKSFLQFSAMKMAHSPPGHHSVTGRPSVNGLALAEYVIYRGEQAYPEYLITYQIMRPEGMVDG
Description: Biochemical activity testing of Tankyrase 1 and 2: Autoparsylation assay
The autoparsylation assay is run in two steps: the enzymatic reaction in which GST-tagged Tankyrase-1, resp Tankyrase-2 transferred biotinylated ADP-ribose to itself from biotinylated NAD as co-substrate and the detection reaction where a time resolved FRET between cryptate labelled anti-GST bound to the GST tag of the enzyme and Xlent® labelled-streptavidin bound the biotin-parsylation residue is analysed. The autoparsylation activity was detectable directly via the increase in HTRF signal.
The autoparsylation assay is performed as 384-well HTRF® (Cisbio, Codolet, France) assay format in Greiner low volume nb 384-well microtiter plates and is used for high throughput screen. 250 nM GST-tagged Tankyrase-1 (1023-1327 aa), respectively about 250 nM GST-tagged Tankyrase-2 (873-1166 aa) and 5 μM bio-NAD (Biolog, Life science Inst., Bremen, Germany) as co-substrate are incubated in a total volume of 5 μl (50 mM HEPES, 4 mM Mg-chloride, 0.05% Pluronic F-68, 1.4 mM DTT, 0.5% DMSO, pH 7.7) in the absence or presence of the test compound (10 dilution concentrations) for 90 min at 30° C. The reaction is stopped by the addition of 1 μl 50 mM EDTA solution. 2 μl of the detection solution (1.6 μM SA-Xlent® (Cisbio, Codolet, France), 7.4 nM Anti-GST-K® (Eu-labelled anti-GST, Cisbio, Codolet, France) in 50 mM HEPES, 800 mM KF, 0.1% BSA, 20 mM EDTA, 0.1% CHAPS, pH 7.0) are added. After 1 h incubation at room temperature the HTRF is measured with an Envision multimode reader (Perkin Elmer LAS Germany GmbH) at excitation wavelength 340 nm (laser mode) and emission wavelengths 615 nm and 665 nm. The ratio of the emission signals is determined. The full value used is the inhibitor-free reaction. The pharmacological zero value used is XAV-939 (Tocris) in a final concentration of 5 μM. The inhibitory values (IC50) are determined using either the program Symyx Assay Explorer® or Condosseo® from GeneData.

Cc1ccc(-c2cc3cc(F)ccc3c(=O)[nH]2)cc1 [Compound A10, 6-fluoro-3-p-tolyl-2H-isoquinolin-1-one]
EC50 (tankyrase 1/2): 3000 to 50000 nM
IC50 (TNKS1): < 300 nM
IC50 (Tankyrase-2): 300 to 3000 nM

CC(C)(O)c1ccc(-c2cc3ccccc3c(=O)[nH]2)cc1 [Compound A3, 3-[4-(1-hydroxy-1-methyl-ethyl)-phenyl]-2H-isoquinolin-1-one]
EC50 (tankyrase 1/2): < 300 nM
IC50 (TNKS1): < 300 nM
IC50 (Tankyrase-2): < 300 nM

COC(C)(C)c1ccc(-c2cc3ccccc3c(=O)[nH]2)cc1 [Compound A15, 3-[4-(1-methoxy-1-methyl-ethyl)-phenyl]-2H-isoquinolin-1-one]
EC50 (tankyrase 1/2): < 300 nM
IC50 (TNKS1): < 300 nM
IC50 (Tankyrase-2): 300 to 3000 nM

CC(C)(O)c1ccc(-c2cc3cnccc3c(=O)[nH]2)cc1 [Compound A23, 3-[4-(1-hydroxy-1-methyl-ethyl)phenyl]-2H-2,6-naphthyridin-1-one]
EC50 (tankyrase 1/2): 300 to 3000 nM
IC50 (TNKS1): < 300 nM
IC50 (Tankyrase-2): < 300 nM

Cn1cc(-c2ccc(-c3cc4ccncc4c(=O)[nH]3)cc2)cn1 [Compound A14, 3-[4-(1-Methyl-1H-pyrazol-4-yl)-phenyl]-2H-[2,7]naphthyridin-1-one]
EC50 (tankyrase 1/2): 300 to 3000 nM
IC50 (TNKS1): < 300 nM
IC50 (Tankyrase-2): 300 to 3000 nM

Cc1ccc(-c2cc3c(C)cccc3c(=O)[nH]2)cc1 [Compound A29, 5-methyl-3-(p-tolyl)-2H-isoquinolin-1-one]
EC50 (tankyrase 1/2): 300 to 3000 nM
IC50 (TNKS1): < 300 nM
IC50 (Tankyrase-2): 300 to 3000 nM

CC(C)(O)c1ccc(-c2cc3c(F)cc(F)cc3c(=O)[nH]2)cc1 [Compound A33, 5,7-difluoro-3-[4-(1-hydroxy-1-methyl-ethyl)-phenyl]-2H-isoquinolin-1-one]
EC50 (tankyrase 1/2): < 300 nM
IC50 (TNKS1): < 300 nM
IC50 (Tankyrase-2): 300 to 3000 nM

C=C(C)c1ccc(-c2cc3ccc(F)cc3c(=O)[nH]2)cc1 [Compound A17, 7-fluoro-3-(4-isopropenyl-phenyl)-2H-isoquinolin-1-one]
EC50 (tankyrase 1/2): < 300 nM
IC50 (TNKS1): < 300 nM
IC50 (Tankyrase-2): 300 to 3000 nM

Cc1ccc(-c2cc3c(F)cccc3c(=O)[nH]2)cc1 [Compound A12, 5-fluoro-3-p-tolyl-2H-isoquinolin-1-one]
EC50 (tankyrase 1/2): 300 to 3000 nM
IC50 (TNKS1): < 300 nM
IC50 (Tankyrase-2): 300 to 3000 nM

CC(C)(N)c1ccc(-c2cc3ccc(F)cc3c(=O)[nH]2)cc1 [Compound A20, 3-[4-(1-amino-1-methyl-ethyl)phenyl]-7-fluoro-2H-isoquinolin-1-one]
EC50 (tankyrase 1/2): 300 to 3000 nM
IC50 (TNKS1): < 300 nM
IC50 (Tankyrase-2): < 300 nM

CC(C)(O)c1ccc(-c2cc3cccc(F)c3c(=O)[nH]2)cc1 [Compound A27, 8-fluoro-3-[4-(1-hydroxy-1-methyl-ethyl)phenyl]-2H-isoquinolin-1-one]
EC50 (tankyrase 1/2): < 300 nM
IC50 (TNKS1): < 300 nM
IC50 (Tankyrase-2): < 300 nM

CC(C)(O)c1ccc(-c2cc3ccncc3c(=O)[nH]2)cc1 [Compound A24, 3-[4-(1-hydroxy-1-methyl-ethyl)phenyl]-2H-2,7-naphthyridin-1-one]
EC50 (tankyrase 1/2): 300 to 3000 nM
IC50 (TNKS1): < 300 nM
IC50 (Tankyrase-2): < 300 nM

CC(C)(O)c1ccc(-c2cc3c(F)cccc3c(=O)[nH]2)cc1 [Compound A28, 5-fluoro-3-[4-(1-hydroxy-1-methyl-ethyl)phenyl]-2H-isoquinolin-1-one]
EC50 (tankyrase 1/2): < 300 nM
IC50 (TNKS1): < 300 nM
IC50 (Tankyrase-2): < 300 nM

CC(C)(O)c1ccc(-c2cc3ccc(F)cc3c(=O)[nH]2)cc1 [Compound A6, 7-fluoro-3-[4-(1-hydroxy-1-methyl-ethyl)-phenyl]-2H-isoquinolin-1-one]
EC50 (tankyrase 1/2): < 300 nM
IC50 (TNKS1): < 300 nM
IC50 (Tankyrase-2): < 300 nM

Cn1cc(-c2ccc(-c3cc4ccc(F)cc4c(=O)[nH]3)cc2)cn1 [Compound A18, 7-fluoro-3-[4-(1-methyl-1H-pyrazol-4-yl)-phenyl]-2H-isoquinolin-1-one]
EC50 (tankyrase 1/2): < 300 nM
IC50 (TNKS1): < 300 nM
IC50 (Tankyrase-2): 300 to 3000 nM

Cc1ccc(-c2cc3cccc(F)c3c(=O)[nH]2)cc1 [Compound A11, 8-fluoro-3-p-tolyl-2H-isoquinolin-1-one]
EC50 (tankyrase 1/2): 300 to 3000 nM
IC50 (TNKS1): < 300 nM
IC50 (Tankyrase-2): < 300 nM

Cc1ccc(-c2cc3ccc(F)cc3c(=O)[nH]2)cc1 [Compound A9, 7-fluoro-3-p-tolyl-2H-isoquinolin-1-one]
EC50 (tankyrase 1/2): 300 to 3000 nM
IC50 (TNKS1): < 300 nM
IC50 (Tankyrase-2): < 300 nM

CC(C)(OCCO)c1ccc(-c2cc3ccc(F)cc3c(=O)[nH]2)cc1 [Compound A16, 7-fluoro-3-{4-[1-(2-hydroxy-ethoxy)-1-methyl-ethyl]-phenyl}-2H-isoquinolin-1-one]
EC50 (tankyrase 1/2): < 300 nM
IC50 (TNKS1): < 300 nM
IC50 (Tankyrase-2): < 300 nM

CC(C)(O)c1ccc(-c2cc3cc(F)ccc3c(=O)[nH]2)cc1 [Compound A5, 6-fluoro-3-[4-(1-hydroxy-1-methyl-ethyl)-phenyl]-2H-isoquinolin-1-one]
EC50 (tankyrase 1/2): 300 to 3000 nM
IC50 (TNKS1): < 300 nM
IC50 (Tankyrase-2): 300 to 3000 nM
